Reference: patent US9751885B2, “Cyclopropanamine compound and use thereof” (Takeda Pharmaceutical Company Limited, priority 2012, dated 2017)
Where a name gives a salt, the structure may show the parent alone. Read-outs that look alike come from different tables or passages of the source. Marks after values point to notes of the source that are not given here.

What was measured:
[1] = test system: white blood cell number, red blood cell number, platelet number; experiment: Evaluation of blood cell number in mouse; type: in vivo; details: oral, Day 2 after administration
Outline: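 Male ICR mice dosed orally at 1, 10, 50 or 100 mg/kg (suspension in 0.5% methylcellulose/0.02% citric acid/water); whole blood collected on Day 2. White cell, red cell and platelet counts per unit volume by automated haematology analyser, expressed as % of mean of untreated control group.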

MAO-B enzyme = MAO-B enzyme (Homo sapiens (Human), UniProt P27338); experiment: Measurement of MAO-B inhibitory activity (MAO-Glo Assay); details: read-out: MAO-B IC50 value;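 note: luminescence read-out, compound preincubated 10 min with enzyme then reacted 60 min at room temperature, inhibition relative to enzyme reaction without compound, blank lacking enzyme and compound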
human LSD1(172-833) = human LSD1(172-833) (Homo sapiens (Human), UniProt O60341); experiment: Measurement of LSD1 inhibitory activity (time-resolved fluorescence, biotin-histone H3 mono methylated K4 peptide); type: biochemical
Outline: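 Remaining signal detected by TR-FRET after 60 min with europium anti-histone H3 antibody and streptavidin-XL665 in potassium fluoride/0.1% BSA.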

[2] = test system: Gad1 H3K4me2 level in rat primary culture neurons; experiment: Gad1 H3K4 methylation induction activity in rat primary culture neurons (ChIP-qPCR); type: cell-based; details: Neuron, 72 h, control without compound = 100%
Procedure: Gad1 H3K4 Methylation Induction Activity in Rat Primary Culture Neurons
Thereafter, the compound was added to final concentrations of 1 or 10 μM, and the cells were further cultured for 3 days. The culture supernatant was aspirated, ice-cold PBS was added, and the cell suspension was collected on ice using CELL SCRAPER (IWAKI). […] (750 μL). Furthermore, 0.3% NP40/cell lysis buffer 1 (750 μL) was added, and the cells were lysed by incubating for 5 min on ice.
Using the DNA obtained by the chromatin immunoprecipitation as a template, quantitative PCR of the Gad1 gene upstream genomic region was performed, and the measurement value was taken as the Gad1 H3K4me2 level. […] The Gad1 H3K4me2 induction by the compound was expressed by the H3K4me2 level when the compound was added, as compared to the H3K4me2 level of the control (without addition of the compound) as 100%.

MAO-A enzyme = MAO-A enzyme (Homo sapiens (Human), UniProt P21397); experiment: Measurement of MAO-A inhibitory activity (MAO-Glo Assay); type: biochemical
[3] = Evaluation of hippocampal distribution in mouse; type: in vivo; details: male ICR mice, 10 mg/kg oral; for concentration at 1 h: 1 hr after administration; for concentration at 0.5 h: 0.5 hr after administration
Outline: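 Male ICR mice dosed orally at 10 mg/kg as suspension in 0.5% methylcellulose/0.02% citric acid/water. Plasma and hippocampus sampled together at 0.5, 1 or 1.5 h; LC/MS/MS concentrations gave hippocampus/plasma ratio.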

[4] = Rattus norvegicus, read-out: Gad1 H3K4me2 induction activity (%), compound 1 μM, 3 days, rat primary culture neurons
[5] = Rattus norvegicus, read-out: Gad1 H3K4me2 induction activity (%), compound 10 μM, 3 days, rat primary culture neurons
[6] = hippocampus, read-out: hippocampus concentration (mean)
[7] = plasma, read-out: plasma concentration (mean)
[8] = compound 1 μM, 3 days, rat primary culture neurons, read-out: Gad1 H3K4me2 induction activity (%)
[9] = compound 10 μM, 3 days, rat primary culture neurons, read-out: Gad1 H3K4me2 induction activity (%)

MAO-A enzyme, sequence (P21397 whole entry): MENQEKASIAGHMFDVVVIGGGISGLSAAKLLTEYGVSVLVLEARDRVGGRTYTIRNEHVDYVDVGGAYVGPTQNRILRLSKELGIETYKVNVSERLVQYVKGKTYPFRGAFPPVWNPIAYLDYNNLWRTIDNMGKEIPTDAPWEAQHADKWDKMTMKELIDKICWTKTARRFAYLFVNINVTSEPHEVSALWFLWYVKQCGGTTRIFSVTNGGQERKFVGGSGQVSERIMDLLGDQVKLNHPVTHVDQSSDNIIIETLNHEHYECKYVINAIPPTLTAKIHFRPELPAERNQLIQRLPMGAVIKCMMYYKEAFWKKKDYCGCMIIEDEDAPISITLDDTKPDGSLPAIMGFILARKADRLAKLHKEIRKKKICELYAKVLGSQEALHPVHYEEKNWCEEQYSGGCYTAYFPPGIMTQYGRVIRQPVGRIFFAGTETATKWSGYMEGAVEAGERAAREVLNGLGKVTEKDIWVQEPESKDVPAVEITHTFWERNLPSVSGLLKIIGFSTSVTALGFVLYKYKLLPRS
MAO-B enzyme, sequence (P27338 whole entry): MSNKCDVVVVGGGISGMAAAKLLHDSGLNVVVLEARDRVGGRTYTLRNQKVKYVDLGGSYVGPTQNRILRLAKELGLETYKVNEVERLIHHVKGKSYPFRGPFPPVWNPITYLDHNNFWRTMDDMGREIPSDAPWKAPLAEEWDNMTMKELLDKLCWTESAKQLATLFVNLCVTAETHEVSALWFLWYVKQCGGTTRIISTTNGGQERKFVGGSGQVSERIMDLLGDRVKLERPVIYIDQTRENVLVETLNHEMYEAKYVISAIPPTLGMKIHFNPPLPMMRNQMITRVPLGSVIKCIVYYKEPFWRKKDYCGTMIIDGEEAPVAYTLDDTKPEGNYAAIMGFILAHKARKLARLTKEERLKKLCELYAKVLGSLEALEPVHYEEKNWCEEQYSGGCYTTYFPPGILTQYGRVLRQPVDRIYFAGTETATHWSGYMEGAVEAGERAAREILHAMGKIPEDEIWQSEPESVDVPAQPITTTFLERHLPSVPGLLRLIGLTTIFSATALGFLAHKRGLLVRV

SMILES	platelet number, percentage of compound administration group compared to control group, mean ([1]; 10 mg/kg)	red blood cell number, percentage of compound administration group compared to control group, mean ([1]; 10 mg/kg)	white blood cell number, percentage of compound administration group compared to control group, mean ([1]; 10 mg/kg)	platelet number, percentage of compound administration group compared to control group, mean ([1]; 50 mg/kg)	red blood cell number, percentage of compound administration group compared to control group, mean ([1]; 50 mg/kg)	white blood cell number, percentage of compound administration group compared to control group, mean ([1]; 50 mg/kg)	IC50 (MAO-B enzyme)	IC50 (human LSD1(172-833))	activity at 1 µM [2, 4]	activity at 10 µM [2, 5]	IC50 (MAO-A enzyme)	platelet number, percentage of compound administration group compared to control group, mean ([1]; 100 mg/kg)	red blood cell number, percentage of compound administration group compared to control group, mean ([1]; 100 mg/kg)	white blood cell number, percentage of compound administration group compared to control group, mean ([1]; 100 mg/kg)	concentration at 1 h [3, 6]	concentration at 1 h [3, 7]	activity at 1 µM [2, 8]	activity at 10 µM [2, 9]	concentration at 0.5 h [3, 6]	concentration at 0.5 h [3, 7]
O=C(Nc1ccc(-c2ncccn2)cc1)c1cccc([C@@H]2C[C@H]2NCC2CC2)c1 (relative stereo) [Example 58, 3-(trans-2-((cyclopropylmethyl)amino)cyclopropyl)-N-(4-(pyrimidin-2-yl)phenyl)benzamide dihydrochloride]	99.4%	99.7%	94.2%	102.9^a %	101.3^a %	85.8^a %	> 10 µM	< 0.1 µM	126%	116%	> 10 µM	–	–	–	–	–	–	–	–	–
O=C(Nc1cnn(CC2CC2)c1)c1cccc([C@@H]2C[C@H]2NCC2CC2)c1 (relative stereo) [Example 77, 3-(trans-2-((cyclopropylmethyl)amino)cyclopropyl)-N-(1-(cyclopropylmethyl)-1H-pyrazol-4-yl)benzamide dihydrochloride]	99.6%	98.2%	147.9%	–	–	–	> 10 µM	< 0.1 µM	165%	163%	> 10 µM	96.6%	100.9%	98.2%	–	–	–	–	–	–
Cc1cc(NC(=O)c2cccc([C@@H]3C[C@H]3NCC3CC3)c2)on1 (relative stereo) [Example 106, 3-(trans-2-((cyclopropylmethyl)amino)cyclopropyl)-N-(3-methyl-1,2-oxazol-5-yl)benzamide hydrochloride]	94.6%	99.4%	114.8%	–	–	–	> 10 µM	< 0.1 µM	–	–	> 10 µM	97.2%	101.9%	89.0%	107 ng/g	33 ng/mL	139%	132%	–	–
Cc1nnc(NC(=O)c2ccc(F)c([C@@H]3C[C@H]3NCC3CC3)c2)s1 (relative stereo) [Example 109, 3-(trans-2-((cyclopropylmethyl)amino)cyclopropyl)-4-fluoro-N-(5-methyl-1,3,4-thiadiazol-2-yl)benzamide dihydrochloride]	94.3%	96.3%	88.3%	–	–	–	> 10 µM	< 0.1 µM	–	–	> 10 µM	97.8%	98.2%	107.4%	–	–	117%	96%	1610 ng/g	1250 ng/mL
Cc1ncc(NC(=O)c2cccc([C@@H]3C[C@H]3NC3CCOCC3)c2)s1 (relative stereo) [Example 212, N-(2-methyl-1,3-thiazol-5-yl)-3-(trans-2-(tetrahydro-2H-pyran-4-ylamino)cyclopropyl)benzamide dihydrochloride]	–	–	–	–	–	–	> 10 µM	< 0.1 µM	–	–	> 10 µM	–	–	–	–	–	201%	289%	–	–
